Structures are written as SMILES. Converted amounts (≈) assume the structure as drawn.

For the data set the following is noted: buffer; pH 7.4; 200.0 µM.
Consider `Cl.O=C(c1cccc(S(=O)(=O)N2CCc3ccccc32)c1)N1CCN(CCO)CC1`, for which the solubility (kinetic) is > 67.8 µg/mL.

`N#Cc1c(Nc2ccccc2C(F)(F)F)s[nH]c1=O`: the kinetic solubility was > 42.8 µg/mL.

On to `O=C(NCCCO)C(=O)Nc1cc2c3c(c1)CCN3C(=O)CC2`, for which the solubility (kinetic) was > 47.6 µg/mL.

Regarding `CCN(CC)C(=O)c1ccc(NC(=O)c2c(C)noc2C)cc1`, the solubility (kinetic) was > 47.3 µg/mL.

Consider `FC(F)(F)c1ccnc(Oc2ccc(C3=NCCS3)cc2)c1`, for which the solubility (kinetic) stood at 2.2 µg/mL (≈ 6.78 µM).

For `O=C(Nc1cccc(S(=O)(=O)N2CCCC2)c1)c1ccco1`, the solubility (kinetic) is > 48.1 µg/mL.

`CC(=O)Nc1ccc(NC(=O)CN2C(=O)NC3(CCCCCCC3)C2=O)cc1`: the kinetic solubility worked out at 45.1 µg/mL (≈ 117 µM).

`COc1ccc(NC(=O)CCC(=O)c2ccc(C(C)C)cc2)cc1`: the solubility (kinetic) is < 0.7 µg/mL.

As for `Cc1cc(C)c(NC(=O)C2CCN(C(=O)c3ccco3)CC2)c(C)c1`, the kinetic solubility is 44.2 µg/mL (≈ 130 µM).

Compound `COc1cc2c(cc1OC)C(c1ccc(Br)cc1)NC(=O)C2` (stereo not drawn) returned a kinetic solubility of 45.2 µg/mL (≈ 125 µM).

As to `COc1cc(NC(=O)c2ccc(Cl)cc2)c2ncccc2c1`, the solubility (kinetic) is < 0.3 µg/mL.

For the compound `COc1ccccc1OCCCC(=O)NCc1ccco1`, the solubility (kinetic) was > 43.4 µg/mL.

In the case of `COC(=O)c1ccccc1NS(=O)(=O)c1c(C)noc1C`, the solubility (kinetic) was > 46.5 µg/mL.

`O=C(COC(=O)c1cncc(Br)c1)NC12CC3CC(CC(C3)C1)C2` displayed a solubility (kinetic) of 1.4 µg/mL (≈ 3.56 µM).

Regarding `O=c1c2c3c(sc2nc2n1CCC2)CCCC3`, the solubility (kinetic) is 33.8 µg/mL (≈ 137 µM). This solubility kinetic lies about 24-fold higher than the previous one.

On to `CCN(CC)C(=O)c1ccc(NC(=O)c2cccc(C(F)(F)F)c2)cc1`, for which the solubility (kinetic) was determined as 2.8 µg/mL (≈ 7.68 µM). This solubility kinetic is about 12-fold lower than that of the compound before.

Regarding `COc1ccc(S(=O)(=O)N2CCSC2C)cc1C` (stereo not drawn), the kinetic solubility was found to be 34.9 µg/mL (≈ 121 µM). Against the preceding compound, the solubility kinetic is about 12-fold higher.

In turn, `CC(C)c1ccc(OCC(=O)Nc2ccncc2)cc1` displayed a solubility (kinetic) of 38.8 µg/mL (≈ 144 µM).

Take `Cc1ccc(CN(CCO)CCO)cc1`: the solubility (kinetic) was 29.4 µg/mL (≈ 140 µM). The solubility kinetic values of the last two compounds are within 1.5-fold of each other.

For `COCCn1c(C)cc(C(=O)COC(=O)c2ccc([N+](=O)[O-])o2)c1C`, the solubility (kinetic) was > 52.5 µg/mL.

Take `COc1ccc(CN2C(=O)c3ccccc3C2=O)cc1`: the solubility (kinetic) is 6 µg/mL (≈ 22.4 µM).

`CSCCOC(=O)C1=C(C)NC(=O)NC1c1ccc2c(c1)OCO2` (stereo not drawn): the solubility (kinetic) was > 52.6 µg/mL.

`CC1CN(C2=CC(=O)CCC2)CC(C)O1` (stereo not drawn): the kinetic solubility was > 31.4 µg/mL.

Take `CCCCn1c(N)c(N(CC)C(=O)CCNC(=O)c2ccc(Cl)cc2)c(=O)[nH]c1=O`: the kinetic solubility was > 65.4 µg/mL.

Compound `O=C(CN1CCOCC1)Nc1cc([N+](=O)[O-])ccc1Cl` displayed a solubility (kinetic) of 9.8 µg/mL (≈ 32.7 µM).

Take `COc1ccc(C(=O)Nc2ccc(CN3CCCCC3)cc2)cc1`: the solubility (kinetic) was > 48.7 µg/mL.

Regarding `S=C(Nc1cccnc1)Nc1ccccc1Br`, the kinetic solubility is > 46.2 µg/mL.

In turn, `Cc1cccc(CSCc2ccc(C(=O)NC3CCCC3)o2)c1` had a solubility (kinetic) of 25.6 µg/mL (≈ 77.7 µM).

With `CCc1nc(Nc2cccc(OC)c2)c2oc3ccccc3c2n1.Cl`, the kinetic solubility was 0.5 µg/mL. This solubility kinetic is about 51-fold lower than that of the compound before.

For `NC(=O)COC(=O)CSc1ccc2ccccc2c1`, the kinetic solubility is > 41.3 µg/mL.

Regarding `Cc1nn(CC(=O)NCCc2ccccc2)c(=O)c2cccn12`, the solubility (kinetic) is > 46.6 µg/mL.

Take `O=C(NCc1ccccc1)c1ccc(Cl)c(S(=O)(=O)N2CCCC2)c1`: the solubility (kinetic) was determined as 33.9 µg/mL (≈ 89.5 µM).

In the case of `O=C(OCC(=O)N1CCCCCC1)c1ccc[nH]c1=O`, the kinetic solubility was > 41.7 µg/mL.

Take `CN(C)C(CNC(=O)C1CCCN1C(=O)c1cccs1)c1ccccc1` (stereo not drawn): the kinetic solubility is > 55.7 µg/mL.

Regarding `Nc1nc(COc2ccc(F)cc2)nc(N2CCCCC2)n1`, the kinetic solubility was 1.9 µg/mL (≈ 6.26 µM).

The compound `Cc1ccccc1NC(=O)Nc1ccc2c(c1)CCC2` came in with a kinetic solubility of 0.5 µg/mL (≈ 1.88 µM).

In the case of `O=C(Nc1nc2ccccc2s1)c1ccc([N+](=O)[O-])o1`, the kinetic solubility is < 0.2 µg/mL.

For `O=C(Nc1cccc(C(=O)Nc2ccccc2C(=O)O)c1)c1cccc(Cl)c1`, the solubility (kinetic) is > 59.2 µg/mL.

In turn, `Cc1cccc(OC(=O)c2cccnc2)c1` gave a solubility (kinetic) of 12.6 µg/mL (≈ 59.1 µM).

Take `O=C1CNC(=S)N1c1nc2ccccc2s1`: the kinetic solubility is 31.6 µg/mL (≈ 127 µM).

Compound `Cc1ccc(Nc2cc(C)c3ccc(O)cc3n2)cc1C.Cl` came in with a kinetic solubility of 11.1 µg/mL.

In turn, `CCOc1ccc(NC(=O)COC(=O)c2ccc3c(c2)OCO3)cc1` gave a solubility (kinetic) of 4 µg/mL (≈ 11.7 µM).

Turning to `COC(=O)CCC(=O)Nc1nccs1`, the kinetic solubility is > 32.1 µg/mL.

`CCCc1cc(=O)oc2c(CN(CC)CC)c(O)c(Cl)cc12`: the kinetic solubility was > 48.6 µg/mL.

Take `N#Cc1cn(-c2cccc(C(F)(F)F)c2)c(=O)[nH]c1=O`: the kinetic solubility was > 42.2 µg/mL.

Regarding `CCOC(=O)C1CCCN(Cc2cc(=O)oc3cc(C)c(C)cc23)C1` (stereo not drawn), the solubility (kinetic) was found to be 23.1 µg/mL (≈ 67.3 µM).

For the compound `COc1ccc(Nc2ccc([N+](=O)[O-])cc2[N+](=O)[O-])cc1`, the solubility (kinetic) turned out to be 1.5 µg/mL (≈ 5.19 µM). This solubility kinetic lies about 15-fold lower than the previous one.

Turning to `COc1ccc(CN2C(=O)CSCC2=O)cc1OC`, the kinetic solubility is > 42.2 µg/mL.

On to `CN(C)S(=O)(=O)Nc1cccc(Br)c1`, for which the kinetic solubility is > 41.9 µg/mL.

As for `O=C(NCCCn1ccnc1)c1cc(C(=O)C2CCCCC2)c[nH]1`, the solubility (kinetic) amounted to 49 µg/mL (≈ 149 µM).

`CN(C(=O)COC(=O)Cn1cnc2ccccc21)C1CCCCC1` had a kinetic solubility of 45 µg/mL (≈ 137 µM).

`O=C(Nc1cccnc1Cl)c1cc(-c2cccc(O)c2)on1`: the kinetic solubility turned out to be 0.3 µg/mL (≈ 0.95 µM).

Take `O=C1CNC(=S)N1C1CCCCCC1`: the kinetic solubility stood at 23.8 µg/mL (≈ 112 µM).

As a reminder, the solubility (kinetic) is the concentration staying in solution when a stock, usually in DMSO, is diluted into the medium.

(Values after PubChem BioAssay AID1996.)
